In brackets after ≈: the same amount, converted by molar mass. Where two headings read alike, the source gives them in different places.
Assays:
Format in all cases: cell-based, Pseudomonas aeruginosa
24-hr old PAO1 biofilms = experiment: Biofilm susceptibility testing (MBEC assay, BacTiter-Glo); conditions: for time required to show antimicrobial activity: 24-hr biofilms, melittin 100 μM, tobramycin 400 μM; for number of viable cells within the biofilms (BacTiter-Glo), mean / percent of cells within 24-hr biofilms killed / fold reduction of viable cells versus untreated biofilm / percent of P. aeruginosa cells in the biofilm killed: 6-hrs; for fold reduction of viable cells versus untreated biofilm / percent of P. aeruginosa cells in the biofilm killed: oxyclozanide 100 μM, tobramycin 500 μM, gentamicin/streptomycin/tetracycline 100 μM, alone or in combination; for time killing curve result at 2 and 4 hrs, single agent: oxyclozanide or tobramycin alone; for EC50: Pseudomonas aeruginosa, read-out: half effective concentration 50 (EC50) of tobramycin; for onset of action: time killing curves, antibiotic alone or with oxyclozanide (100 μM)
Method: (§1) To measure antimicrobial susceptibility of biofilms, the MBEC™ assay was used (Innovotech) as previously described. This assay consists of a lid with 96 polystyrene pegs used to grow biofilms. Briefly, an overnight culture was washed and diluted to an OD600 of 0.001 and seeded into a MBEC™ plate. To grow biofilms, the plate was then incubated for 24-hrs at 35° C. in a humidified chamber with agitation at 150 RPM. After 24-hrs, the lid was then transferred to a 96-well plate filled with DPBS and washed for 5-mins to remove non-adherent cells. The lid was transferred to the 96-well treatment plate and incubated for the indicated time points at 35° C. without agitation. After the incubation, the MBEC™ lid was washed and transferred to a black 96-well ViewPlate (PerkinElmer) filled with BacTiter-Glo™ to enumerate cell viability and then luminescence was measured using a EnVison Multilabel Plate Reader (PerkenElmer, Waltham, Mass.). Percent killing was calculated as:
[formula] Dose response curves were performed in the same manner. Crystal Violet Staining
Time killing curves were performed by growing 24-hr old biofilms on MBEC™ plates as previously described. Briefly, 100 μM of oxyclozanide and 500 μM of tobramycin were used to test for synergy at high concentrations of tobramycin, mirroring what is done clinically. The peg-lid was briefly washed in DPBS to remove non-adherent cells and transferred to a treatment plate and incubated at 35° C. for 8-hrs. At 0, 2, 4, 6, and 8-hrs pegs were collected and BacTiter-Glo™ was used to determine cell viability.

P. aeruginosa biofilms = experiment: Crystal violet staining of biofilm biomass (biofilm dispersal); conditions: for effect on biofilm biomass / dispersal (crystal violet): six hour exposure, 50 μM-400 μM, alone and in combination
Method: To study biofilm dispersal under static conditions, crystal violet staining was performed as previously described. Briefly, 24-hr old biofilms formed on MBEC™ plates, as described above, were stained with crystal violet after a 6-hr incubation with oxyclozanide and tobramycin.
One possible mechanism by which oxyclozanide enhances tobramycin activity is by inducing biofilm dispersal. To test this, the ability of oxyclozanide and tobramycin to disperse P. aeruginosa biofilms was examined using crystal violet staining of the biofilm biomass after six hour exposure to dilutions of oxyclozanide or tobramycin alone and in combination from 50 μM-400 μM (FIG. 6).

[1] = tested on: P. aeruginosa cells within biofilms; experiment: TO-PRO-3 staining for permeabilization of biofilm cells; conditions: melittin 100 μM, 2 hours
Method: 24-hr old biofilms were treated with melittin (100 μM), or tobramycin (400 μM), alone and in combination for 2 hours. […] Percent values indicate the average relative abundance of events within each gate normalized to the total number of events analyzed, excluding artifacts, aggregates and debris. The experiment was performed two separate times in duplicate. The results are percent averages plus the SEM. A one-way ANOVA followed by Bonferroni's multiple comparison post-hoc test was used to determine statistical significance between tobramycin versus melittin, tobramycin versus the combination, and melittin versus the combination(*, p<0.05).

[2] = tested on: P. aeruginosa planktonically grown cells; experiment: microbe, parasite or virus in culture
Method: To measure antimicrobial susceptibility of planktonic cells, MICs were determined using the broth microdilution technique, as described previously. Briefly, microdilutions were made in a 96-well plate in 1% MHB diluted in Dulbecco's Phosphate Buffered Saline with magnesium and calcium (DPBS, Sigma-Aldrich). Cells were combined with the serial dilutions in the 96-well plate at a concentration of ˜[…] CFU/mL in 10% MHB. The plates were then incubated for 24-hrs at 35° C. in a humidified chamber with agitation at 150 RPM. MIC breakpoints were chosen as the minimum concentration in which no turbidity greater than background was measured (absorbance at 595 nm), using a SpectraMax M5 microplate spectrophotometer system (Molecular Devices Sunnyvale, Calif.

[3] = tested on: P. aeruginosa clinical isolates from CF patients grown in biofilms; experiment: Biofilm susceptibility of CF clinical isolates (MBEC, BacTiter-Glo); conditions: 100 μM oxyclozanide; 6-hrs
Method: 24-hr old biofilms grown on MBEC plates were treated with oxyclozanide (100 μM), or tobramycin (500 μM), alone and in combination for 6-hrs. The number of viable cells within the biofilms were quantified by BacTiter-Glo™. The assay was performed three times in triplicate. The results represent means plus the SEM. A one-way ANOVA followed by Bonferroni's multiple comparison post-hoc test was used to determine statistical significance compared to tobramycin alone (*, p<0.05, NS, not significant).
as §1, with “The lid was transferred to the 96-well treatment plate and incubated for the indicated time points at 35° C. without agitation.” left out, “as: […]” for “as:”

[4] = Pseudomonas aeruginosa, read-out: Minimum Inhibitory Concentrations (MIC), +Melittin
[5] = Pseudomonas aeruginosa, read-out: Minimum Inhibitory Concentrations (MIC), Alone

Compound	time required to show antimicrobial activity (24-hr old PAO1 biofilms) [h]	Minimum Inhibitory Concentrations (MIC), Alone [2] [µM]	fold reduction of viable cells versus untreated biofilm (24-hr old PAO1 biofilms)	percent of P. aeruginosa cells in the biofilm killed (24-hr old PAO1 biofilms) [%]	time killing curve result at 2 and 4 hrs, single agent (24-hr old PAO1 biofilms)	effect on biofilm biomass / dispersal (crystal violet) (P. aeruginosa biofilms)	MIC [2, 4] [µM]	MIC [2, 5] [µM]	onset of action (24-hr old PAO1 biofilms) [h]	also measured
CC[C@H](C)[C@H](NC(=O)CN)C(=O)NCC(=O)N[C@@H](C)C(=O)N[C@H](C(=O)N[C@@H](CC(C)C)C(=O)N[C@@H](CCCCN)C(=O)N[C@H](C(=O)N[C@@H](CC(C)C)C(=O)N[C@H](C(=O)N[C@H](C(=O)NCC(=O)N[C@@H](CC(C)C)C(=O)N1CCC[C@H]1C(=O)N[C@@H](C)C(=O)N[C@@H](CC(C)C)C(=O)N[C@H](C(=O)N[C@@H](CO)C(=O)N[C@@H](Cc1c[nH]c2ccccc12)C(=O)N[C@H](C(=O)N[C@@H](CCCCN)C(=O)N[C@@H](CCCNC(=N)N)C(=O)N[C@@H](CCCCN)C(=O)N[C@@H](CCCNC(=N)N)C(=O)N[C@@H](CCC(N)=O)C(=O)N[C@@H](CCC(N)=O)C(N)=O)[C@@H](C)CC)[C@@H](C)CC)[C@@H](C)O)[C@@H](C)O)C(C)C)C(C)C [melittin]	2	62.5 to 200								number of viable cells within the biofilms (BacTiter-Glo), mean (24-hr old PAO1 biofilms; Tobramycin 0 μM, Melittin 12.5 μM): 5.18E5; number of viable cells within the biofilms (BacTiter-Glo), mean (24-hr old PAO1 biofilms; Tobramycin 0 μM, Melittin 25 μM): 4.22E5; number of viable cells within the biofilms (BacTiter-Glo), mean (24-hr old PAO1 biofilms; Tobramycin 0 μM, Melittin 50 μM): 2.87E5; number of viable cells within the biofilms (BacTiter-Glo), mean (24-hr old PAO1 biofilms; Tobramycin 0 μM, Melittin 100 μM): 2.51E4; biofilm dispersal (crystal violet) (P. aeruginosa biofilms; 24-hr biofilms treated for 6-hrs): significant biofilm dispersal; permeabilization of cells (TO-PRO-3) [1]: causes permeabilization
O=C(Nc1cc(Cl)cc(Cl)c1O)c1c(O)c(Cl)cc(Cl)c1Cl [oxyclozanide]			about 2 fold	44	no significant killing	did not impact biofilm biomass				percent of cells within 24-hr biofilms killed (24-hr old PAO1 biofilms; 400 μM of each agent): ~80%; percent of cells within 24-hr biofilms killed (24-hr old PAO1 biofilms; oxyclozanide alone between 25 and 200 μM): 20-40%; sensitivity of six clinical isolates to treatment alone [3]: modest sensitivity; effect on the minimum inhibitory concentration of tobramycin, gentamicin, streptomycin, or tetracycline ([2]; planktonically grown cells): no effect
[H]/N=C(/N)N[C@H]1[C@H](O)[C@@H](O)[C@H](O[C@@H]2O[C@@H](C)[C@](O)(C=O)[C@H]2O[C@@H]2O[C@@H](CO)[C@H](O)[C@@H](O)[C@@H]2NC)[C@@H](N/C(N)=N\[H])[C@@H]1O [streptomycin]							25 to 50 (≈ 14.5 to 29.1 µg/mL)	25 to 50 (≈ 14.5 to 29.1 µg/mL)		delay in killing activity against 24-hr old biofilms (24-hr old PAO1 biofilms; antibiotic alone, 100 μM): did not show a delay
NC[C@H]1O[C@H](O[C@H]2[C@H](O)[C@@H](O[C@H]3O[C@H](CO)[C@@H](O)[C@H](N)[C@H]3O)[C@H](N)C[C@@H]2N)[C@H](N)C[C@@H]1O [tobramycin]	6		about 2 fold	56	increase in cell number	significantly reduced biofilm biomass	3.12 to 6.25 (≈ 1.46 to 2.92 µg/mL)	3.12 to 6.25 (≈ 1.46 to 2.92 µg/mL)	6	EC50 (24-hr old PAO1 biofilms; PAO1, in combination with melittin): 16 µM; EC50 (24-hr old PAO1 biofilms; PAO1, tobramycin alone): 46 µM; number of viable cells within the biofilms (BacTiter-Glo), mean (24-hr old PAO1 biofilms; Tobramycin 50 μM, Melittin 0 μM): 1.82E5; number of viable cells within the biofilms (BacTiter-Glo), mean (24-hr old PAO1 biofilms; Tobramycin 100 μM, Melittin 0 μM): 1.91E5; number of viable cells within the biofilms (BacTiter-Glo), mean (24-hr old PAO1 biofilms; Tobramycin 200 μM, Melittin 0 μM): 2.27E5
gentamicin		6.25 to 12.5							4	MIC ([2]; +Melittin, read-out: Minimum Inhibitory Concentrations (MIC), +Melittin): 12.5 µM

— patent publication US11318149B2, “Compositions and methods for inhibiting biofilm-forming bacteria” (Board of Trustees of Michigan State University, priority 2018, dated 2022)
